Assay [1] relates to Avena fatua. Briefly: Phytotoxicity against Avena fatua assessed as inhibition of root growth as root length at 0.25 mM measured after 10 days sowing (reference value: 9.6 +/- 0.36%). In kind it is functional. The settings on record: 240 h, read-out: GI.
For assay [2], the system named is Avena fatua. Briefly: Phytotoxicity against Avena fatua assessed as seed germination at 2 mM measured after 10 days sowing (reference value: 50 +/- 2.89%). Format: functional.
Assay [3] relates to Avena fatua. In words: Phytotoxicity against Avena fatua assessed as inhibition of shoot growth as shoot length at 1 mM (reference value: 11.2 +/- 0.35%). Format: functional. The following applies: read-out: GI.
The subject of assay [4] is Avena fatua. In words: Phytotoxicity against Avena fatua assessed as inhibition of root growth as root length at 2 mM (reference value: 9.6 +/- 0.36%). In kind it is functional. The settings on record: read-out: GI.
Assay [5] deals with Avena fatua. Briefly: Phytotoxicity against Avena fatua assessed as seed germination at 0.25 mM measured after 10 days sowing (reference value: 50 +/- 2.89%). In kind it is functional.
Assay [6] has as its system Avena fatua. Briefly: Phytotoxicity against Avena fatua assessed as seed germination at 1 mM measured after 10 days sowing (reference value: 50 +/- 2.89%). Format: functional.
Assay [7] concerns Avena fatua. Briefly: Phytotoxicity against Avena fatua assessed as inhibition of shoot growth as shoot length at 0.5 mM (reference value: 11.2 +/- 0.35%). Format: functional. The settings on record: read-out: GI.
Assay [8] concerns Avena fatua. Briefly: Phytotoxicity against Avena fatua assessed as inhibition of root growth as root length at 0.125 mM (reference value: 9.6 +/- 0.36%). Format: functional. The settings on record: read-out: GI.
Assay [9] has as its system Avena fatua. Briefly: Phytotoxicity against Avena fatua assessed as inhibition of shoot growth as shoot length. Format: functional, organism-based.
Assay [10] concerns Avena fatua. Briefly: Phytotoxicity against Avena fatua assessed as inhibition of root growth as root length. In kind it is functional, organism-based.
Assay [11] deals with Avena fatua. Briefly: Phytotoxicity against Avena fatua assessed as inhibition of shoot growth as shoot length at 2 mM (reference value: 11.2 +/- 0.35%). Format: functional. The following applies: read-out: GI.
The test system of assay [12] is Avena fatua. Briefly: Phytotoxicity against Avena fatua assessed as inhibition of shoot growth as shoot length at 0.25 mM (reference value: 11.2 +/- 0.35%). In kind it is functional. The settings on record: read-out: GI.
Assay [13] concerns Avena fatua. Briefly: Phytotoxicity against Avena fatua assessed as seed germination at 0.125 mM measured after 10 days sowing (reference value: 50 +/- 2.89%). Format: functional.
Assay [14] relates to Avena fatua. Briefly: Phytotoxicity against Avena fatua assessed as inhibition of root growth as root length at 1 mM (reference value: 9.6 +/- 0.36%). The settings on record: read-out: GI. In kind it is functional.
The subject of assay [15] is Avena fatua. Briefly: Phytotoxicity against Avena fatua assessed as seed germination at 0.5 mM measured after 10 days sowing (reference value: 50 +/- 2.89%). Format: functional.
In assay [16] the test system is Avena fatua. In words: Phytotoxicity against Avena fatua assessed as inhibition of root growth as root length at 0.5 mM (reference value: 9.6 +/- 0.36%). In kind it is functional. The following applies: read-out: GI.
Assay [17] has as its system Avena fatua. Briefly: Phytotoxicity against Avena fatua assessed as inhibition of shoot growth as shoot length at 0.125 mM (reference value: 11.2 +/- 0.35%). Format: functional. The following applies: read-out: GI.

A word on the EC50: it is the concentration at which the effect is half-maximal. With `C=C1C(=O)O[C@@H]2[C@H]1CC[C@H](C)[C@@H]1C=CC(=O)[C@@]21C` [AMBROSIN], the results for the inhibition of growth at 250 µM in the assay with Avena fatua [1] and with Avena fatua [12] were 57.3% and 51.8%, respectively. Besides, the Activity in the assay with Avena fatua [2] came out at 26.7%; in the assay on Avena fatua [5] it was 36.7%; in the assay with Avena fatua [6], 26.7%; in the assay with Avena fatua [13], 50%; in the assay on Avena fatua [15] it was 28.3%. The inhibition of growth at 1000 µM in the assay with Avena fatua [3] stood at 75.9%; with Avena fatua [14], 92.4%. Moreover, the inhibition of growth at 2000 µM in the assay on Avena fatua [4] amounted to 99%; with Avena fatua [11] it was 86.6%. The results for the inhibition of growth at 500 µM with Avena fatua [7] and in the assay with Avena fatua [16] were 74.1% and 85.4%, respectively. Besides, the inhibition of growth at 125 µM in the assay on Avena fatua [8] came out at 22.9%; with Avena fatua [17], 19.6%. The figures for the EC50 with Avena fatua [9] and in the assay on Avena fatua [10] were 300 µM and 220 µM, respectively.
On to `C=C(C(=O)O)[C@@H]1CC[C@H](C)[C@@H]2CCC(=O)[C@@]2(C)C1` [DAMCINIC ACID], for which the figures for the inhibition of growth at 250 µM in the assay with Avena fatua [1] and in the assay with Avena fatua [12] were 31.3% and 6.3%, respectively. Also, the Activity in the assay with Avena fatua [2] worked out at 28.3%; in the assay on Avena fatua [5] it was 40%; in the assay with Avena fatua [6], 38.3%; in the assay with Avena fatua [13], 41.7%; with Avena fatua [15], 38.3%. Also, the inhibition of growth at 1000 µM with Avena fatua [3] worked out at 44.6%; with Avena fatua [14], 64.6%. The figures for the inhibition of growth at 2000 µM with Avena fatua [4] and in the assay with Avena fatua [11] were 79.2% and 70.5%, respectively. In addition, the results for the inhibition of growth at 500 µM with Avena fatua [7] and with Avena fatua [16] were 29.5% and 50%, respectively. The values for the inhibition of growth at 125 µM with Avena fatua [8] and in the assay with Avena fatua [17] were 4.2% and 3.6%, respectively. In addition, the 50% effective concentration (EC50) in the assay on Avena fatua [9] turned out to be 1090 µM; with Avena fatua [10] it was 600 µM.
In the case of `C=C1C(=O)O[C@@H]2[C@H]1CC[C@H](C)[C@@H]1CCC(=O)[C@@]21C` [DAMSIN], the inhibition of growth at 250 µM turned out to be 55.2% in the assay on Avena fatua [1] and 5.4% in the assay with Avena fatua [12]. The Activity is reported as 16.7% with Avena fatua [2]; 35% in the assay on Avena fatua [5]; 26.7% in the assay with Avena fatua [6]; 46.7% in the assay on Avena fatua [13]; 30% in the assay with Avena fatua [15]. In addition, the inhibition of growth at 1000 µM was determined as 66.1% in the assay on Avena fatua [3] and 92.4% in the assay with Avena fatua [14]. Besides, the inhibition of growth at 2000 µM in the assay with Avena fatua [4] is 98.2%; in the assay with Avena fatua [11], 83.9%. Moreover, the values for the inhibition of growth at 500 µM in the assay with Avena fatua [7] and with Avena fatua [16] were 22.3% and 65.6%, respectively. The inhibition of growth at 125 µM is 30.2% with Avena fatua [8] and 1.8% in the assay with Avena fatua [17]. Further, the values for the EC50 with Avena fatua [9] and in the assay with Avena fatua [10] were 830 µM and 240 µM, respectively.
Regarding `C=C1C(=O)O[C@@H]2[C@H]1CC[C@H](C)[C@@]1(O)C=CC(=O)[C@@]21C` [HYMENIN], the inhibition of growth at 250 µM is 15.6% in the assay on Avena fatua [1] and 25% in the assay with Avena fatua [12]. The Activity with Avena fatua [2] is on record as 30%; in the assay on Avena fatua [5] it was 36.7%; with Avena fatua [6], 30%; with Avena fatua [13], 38.3%; in the assay with Avena fatua [15], 33.3%. Moreover, the inhibition of growth at 1000 µM with Avena fatua [3] was determined as 60.7%; in the assay with Avena fatua [14], 72.9%. Moreover, the values for the inhibition of growth at 2000 µM with Avena fatua [4] and in the assay on Avena fatua [11] were 95.6% and 80.4%, respectively. Moreover, the inhibition of growth at 500 µM was 39.3% in the assay with Avena fatua [7] and 37.5% in the assay on Avena fatua [16]. Besides, the inhibition of growth at 125 µM with Avena fatua [8] was found to be 8.3%; in the assay with Avena fatua [17], 10.7%. In addition, the EC50 in the assay on Avena fatua [9] turned out to be 670 µM; in the assay with Avena fatua [10], 570 µM.
Take `C=C1C(=O)O[C@@H]2[C@H]1CC[C@H](C)C1=CCC(=O)[C@]12C` [NEOAMBROSIN]: the values for the inhibition of growth at 250 µM in the assay with Avena fatua [1] and in the assay with Avena fatua [12] were 40.6% and 10.7%, respectively. The Activity with Avena fatua [2] was determined as 23.3%; in the assay on Avena fatua [5], 40%; with Avena fatua [6], 40%; with Avena fatua [13] it was 46.7%; with Avena fatua [15] it was 36.7%. In addition, the inhibition of growth at 1000 µM was determined as 43.8% in the assay on Avena fatua [3] and 61.5% in the assay with Avena fatua [14]. Further, the inhibition of growth at 2000 µM is 94.8% in the assay on Avena fatua [4] and 84.8% in the assay on Avena fatua [11]. Also, the inhibition of growth at 500 µM in the assay with Avena fatua [7] came out at 20.5%; in the assay with Avena fatua [16] it was 45.6%. Further, the inhibition of growth at 125 µM in the assay with Avena fatua [8] turned out to be 11.5%; in the assay with Avena fatua [17], 2.7%. The concentration for a half-maximal effect (EC50) with Avena fatua [9] turned out to be 960 µM; in the assay on Avena fatua [10], 480 µM.

The values are drawn from ChEMBL document CHEMBL3044712, “Herbicidal potential of pseudoguaninolide sesquiterpenes on wild oat, Avena fatua L” (Biochem Syst Ecol, 2012).
